Biological target: T1, Calmodulin-sensitive adenylate cyclase (Bacillus anthracis, UniProt P40136)
T1 sequence (P40136 whole entry): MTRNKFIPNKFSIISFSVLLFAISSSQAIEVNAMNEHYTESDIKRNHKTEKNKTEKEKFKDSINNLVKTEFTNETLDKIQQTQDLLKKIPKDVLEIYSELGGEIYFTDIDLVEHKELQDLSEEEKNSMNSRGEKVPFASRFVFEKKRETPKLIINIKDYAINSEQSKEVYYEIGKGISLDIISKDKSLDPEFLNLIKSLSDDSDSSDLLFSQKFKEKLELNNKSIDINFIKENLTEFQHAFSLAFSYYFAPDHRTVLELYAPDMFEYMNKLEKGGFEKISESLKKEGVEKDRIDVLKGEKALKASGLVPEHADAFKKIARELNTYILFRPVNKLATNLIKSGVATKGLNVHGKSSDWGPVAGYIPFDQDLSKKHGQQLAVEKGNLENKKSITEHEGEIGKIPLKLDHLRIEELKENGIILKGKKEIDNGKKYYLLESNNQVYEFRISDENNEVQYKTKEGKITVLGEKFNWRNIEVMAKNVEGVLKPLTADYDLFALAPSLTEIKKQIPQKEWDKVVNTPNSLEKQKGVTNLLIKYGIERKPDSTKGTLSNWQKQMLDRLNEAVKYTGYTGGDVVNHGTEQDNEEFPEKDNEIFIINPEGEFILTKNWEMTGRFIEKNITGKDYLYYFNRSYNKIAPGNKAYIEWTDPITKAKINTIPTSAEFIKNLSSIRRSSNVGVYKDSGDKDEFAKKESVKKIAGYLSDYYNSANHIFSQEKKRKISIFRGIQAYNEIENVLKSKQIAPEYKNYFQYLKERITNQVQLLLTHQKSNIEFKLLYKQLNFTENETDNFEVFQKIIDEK
Assay: Inhibition of Bacillus anthracis edema factor-induced edema in RAW264.7 mouse macrophages by cAMP-specific ELISA
Assay type: cell-based

SMILES	IC50 [µM]
O=C1C=C(c2ccc3ncccc3c2)CCC1	> 100
O=C1C=C(c2cccs2)CCC1	> 100
Cn1cc(C2=CC(=O)CCC2)cn1	> 100
O=C1C=C(c2cccnc2)CCC1	> 100
O=C1C=C(c2ccsc2)CCC1	> 100
COc1cccc(C2=CC(=O)CCC2)n1	> 100
O=C1C=C(c2ccoc2)CCC1	> 100
O=C1C=C(c2cccc3c2oc2ccccc23)CCC1	> 100
O=C1C=C(c2cccc(O)c2)CCC1	> 100
O=C1C=C(c2ccccc2)CCC1	> 100
CC1(C)CC(=O)C=C(c2ccc3[nH]ccc3c2)C1	> 100
O=C1C=C(c2nccs2)CCC1	> 100
CC1(C)CC(=O)C=C(c2cccc3c2oc2ccccc23)C1	> 100
